Experimental data from US20160282364A1, “ASSAY FOR INSULIN-DEGRADING ENZYME (IDE) INHIBITORS” (PRESIDENT AND FELLOWS OF HARVARD COLLEGE, priority 2013, published 2016).
“Also recorded” adds a separate entry of the source.

What was measured:
[1] = target: T1, endogenous IDE in mouse plasma (Mus musculus, UniProt Q9JHR7, L174F/R633G/V509I/Y332H); assay: LC-MS assay for ex vivo degradation of CGRP in mouse plasma; type: biochemical; settings: CGRP 10 μM
T1 construct: endogenous IDE in mouse plasma; from tissue; host or cells: mouse plasma
Protocol: All data points and error bars represent mean±SEM. Significance tests were performed using two-tail Student's t-test, and significance levels shown in the figures are p<0.05 (*) or p<0.01 (**) versus the vehicle-only control group. The in vitro selection of the DNA-templated macrocycle libraryl^16,17 used 20 μg His6-tagged mouse IDE immobilized on cobalt magnetic beads (Dynabeads, Invitrogen). IDE proteolytic activity was assayed with fluorogenic peptide Mca-[…](Dnp)-OH (R&D). IDE inhibition was confirmed using an anti-insulin antibody time-resolved FRET assay (Cysbio), and using an LCMS assay for CGRP cleavage fragments CGRP1-17 and CGRP18-37 in plasma^18. […] IDE degradation assays for insulin and calcitonin-gene related peptide (CGRP). […] Fluorescence was measured using a Tecan Safire 2 plate reader (excitation=320 nm, emission=665 and 620 nm, lag time=60 μs) according the assay manufacturer's recommendations. Degradation of CGRP by endogenous IDE in mouse plasma was analyzed by LC-MS for the formation of CGRP1-17 and CGRP18-37 as previously reported^6.

Wild-type mice = assay: Pyruvate tolerance test (PTT); type: in vivo, mouse; settings: vs controls
Protocol: Blood collection and plasma hormone measurements. Blood was collected in EDTA-coated tubes (BD Microtainer®) from trunk bleeding (˜500 μL) after CO2-euthanasia for all hormone assays. The plasma was immediately separated from red blood cells by centrifugation 10 min at 1800 g, aliquoted, frozen over dry ice and stored at −80° C. […] Values are reported as mean±S.E.M. Statistics were performed using a two-tail Student's t-test, and significance levels shown in the figures are *p<0.05 versus vehicle control group or **p<0.01 versus vehicle control group.
RT-PCR analysis of liver gluconeogenesis markers phosphoenolpyruvate carboxykinase (PEPCK) and glucose-6-phosphatase (G6Pase). Total RNA was isolated from liver samples (˜100 mg) using TRIzol® reagent (Invitrogen, 1 mL/100 mg sample), followed by spin-column purification (RNeasy® kit, Qiagen) and on-column DNAse treatment (Qiagen) according to the manufacturer's instructions. RNA concentrations were determined by UV spectrophotometry (NanoDrop). One microgram of total RNA was used for reverse transcription with oligo(dT) primers (SuperScript® III First-Strand Synthesis SuperMix, Life Technologies) according to the manufacturer's instructions. Quantitative PCR reactions included 1 μL of cDNA diluted 1:100, 0.4 μM primers, 2× SYBR Green PCR Master Mix (Invitrogen) in 25 μL total volume, and were read out by a CFX96TM Real-Time PCR Detection System (BioRad). Transcript levels were determined using two known primer pairs^18,19 for each gene of interest (Table 6), which were normalized against tubulin and beta-actin transcripts (ΔΔCT method), and expressed relative to the lowest sample. Duplicate control assays without reverse transcriptase treatment were run for each RNA preparation and primer set used. Statistics were performed using a two-tail Student's t-test, and significance levels shown in the figures are *p<0.05 versus vehicle control group or **p<0.01 versus vehicle control group.

[2] = Plasma pharmacokinetics by isotope dilution mass spectrometry; type: in vivo, mouse; settings: 80 mg/kg
Protocol: Purified macrocycle inhibitors were dissolved in DMSO-d6 ( 200 to 250 mg/mL stock solutions). […] The inhibitor concentration was calculated using the integral of the CH2Cl2 singlet (δ 5.76 ppm, 2H)^57, which appears in an uncluttered region of these spectra^51,58. For injectable formulations (10 mL/kg i.p. injection volume), the macrocycle inhibitor solution in DMSO-d6 (200-250 mg/mL, based on free-base molecular weight) was combined with 1:20 w/w Captisol® powder (CyDex)^59. The resulting slurry was supplemented with DMSO-d6 to make up to 5% of the final formulation volume, mixed thoroughly and dissolved with sterile saline solution (0.9% NaCl). Vehicle controls were identically formulated with 5% DMSO-d6 and equal amount of Captisol®. The formulated solutions of inhibitor were clear with no visible particles, and were stored overnight at 4° C. prior to injection. Stable isotope dilution LC-MS, pharmacokinetics, and tissue distribution measurements. […] Tissue samples ( 100 mg) fromb 6K-treated mice and vehicle controls were weighed and disrupted in Dounce homogenizers with PBS buffer (0.5 mL/100 mg sample), supplemented with 5 μM heavy-6bK and protease inhibitor cocktail (1 tablet/50 mL PBS, Roche diagnostics). The lysate was incubated on ice for 30 min, sonicated 5 min and centrifuged at 13,000 g for 5 min. The bulk of supernatant proteins were precipitated by denaturation at 95° C. for 5 min, removed by centrifugation.

T1 sequence (Q9JHR7 whole entry L174F/Y332H/V509I/R633G): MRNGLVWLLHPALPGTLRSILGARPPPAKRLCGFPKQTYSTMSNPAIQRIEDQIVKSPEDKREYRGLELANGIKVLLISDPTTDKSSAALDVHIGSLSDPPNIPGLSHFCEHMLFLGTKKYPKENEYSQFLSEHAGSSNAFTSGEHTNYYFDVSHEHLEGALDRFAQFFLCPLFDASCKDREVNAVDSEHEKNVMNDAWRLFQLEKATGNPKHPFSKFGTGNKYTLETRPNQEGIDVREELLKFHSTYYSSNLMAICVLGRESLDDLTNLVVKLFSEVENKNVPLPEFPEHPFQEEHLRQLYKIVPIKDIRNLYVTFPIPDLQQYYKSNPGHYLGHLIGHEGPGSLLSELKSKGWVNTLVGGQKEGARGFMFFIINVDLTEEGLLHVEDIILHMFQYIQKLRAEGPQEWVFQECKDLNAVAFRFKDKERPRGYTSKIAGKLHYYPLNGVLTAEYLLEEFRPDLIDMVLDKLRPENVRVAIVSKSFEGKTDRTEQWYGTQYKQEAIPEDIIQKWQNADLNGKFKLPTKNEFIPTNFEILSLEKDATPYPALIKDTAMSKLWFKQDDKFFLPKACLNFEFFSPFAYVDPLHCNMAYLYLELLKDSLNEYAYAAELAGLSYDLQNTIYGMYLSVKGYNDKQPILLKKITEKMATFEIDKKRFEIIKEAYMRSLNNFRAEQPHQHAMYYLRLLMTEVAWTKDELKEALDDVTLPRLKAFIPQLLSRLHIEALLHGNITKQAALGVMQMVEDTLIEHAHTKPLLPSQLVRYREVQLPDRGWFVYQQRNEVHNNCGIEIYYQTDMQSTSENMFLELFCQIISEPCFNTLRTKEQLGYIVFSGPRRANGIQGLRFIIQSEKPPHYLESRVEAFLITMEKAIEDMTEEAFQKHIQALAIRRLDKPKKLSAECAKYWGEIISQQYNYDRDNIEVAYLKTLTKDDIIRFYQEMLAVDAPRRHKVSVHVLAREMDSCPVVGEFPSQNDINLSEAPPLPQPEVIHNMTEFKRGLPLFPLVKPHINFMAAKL

inhibition of IDE proteolytic activity, calcitonin-gene related peptide LC-MS assay [1] | SMILES | plasma glucagon (Wild-type mice; 60 min post-PTT, pyruvate 2.0 g/kg i.p.) | expression of liver gluconeogenic markers (Wild-type mice; 60 min post-PTT) | plasma insulin levels (Wild-type mice; 60 min post-PTT) | blood glucose during the PTT (Wild-type mice; pyruvate 2.0 g/kg i.p.) | plasma concentration relative to IC50 for mouse IDE ([2]; 30 min post-injection) | time at which plasma levels were detectable post-injection ([2]; mouse, in vivo, ip) | time plasma levels maintained at a detectable level ([2]; mouse, in vivo, ip)
confirmed | NC(=O)CCC1NC(=O)C=CC(=O)NC(C(N)=O)CCCCNC(=O)C(Cc2ccc(C(=O)c3ccccc3)cc2)NC(=O)C(CC2CCCCC2)NC1=O (centres unmarked) [Compound 6b] | – | – | – | – | – | – | –
– | NCCCC[C@@H]1NC(=O)/C=C/C(=O)N[C@H](C(N)=O)CCCCNC(=O)[C@@H](Cc2ccc(C(=O)c3ccccc3)cc2)NC(=O)[C@H](CC2CCCCC2)NC1=O [Compound 6bK] | significantly elevated | increased; also recorded: elevated | similar | significantly lower | ~1000 fold | 5 min | at least 4 h
